Earlier results on 3 compounds are cited in patent publication US7943615B2, “Fused aminopiperidines as dipeptidyl peptidase-4 inhibitors for the treatment or prevention of diabetes” (Merck Sharp & Dohme Corp., priority 2005, dated 2011).

The subject of one series is hematopoiesis. The following applies: mouse, cyclophosphamide-induced neutropenia.
A further series deals with cardiac allograft. Conditions: rats; doubled from day 7.
The target in another series is T1, DPP-4 (Homo sapiens, UniProt P27487).
T1 construct: GRF is rapidly degraded in plasma to GRF[344]
T1 sequence (P27487 whole entry, species assumed): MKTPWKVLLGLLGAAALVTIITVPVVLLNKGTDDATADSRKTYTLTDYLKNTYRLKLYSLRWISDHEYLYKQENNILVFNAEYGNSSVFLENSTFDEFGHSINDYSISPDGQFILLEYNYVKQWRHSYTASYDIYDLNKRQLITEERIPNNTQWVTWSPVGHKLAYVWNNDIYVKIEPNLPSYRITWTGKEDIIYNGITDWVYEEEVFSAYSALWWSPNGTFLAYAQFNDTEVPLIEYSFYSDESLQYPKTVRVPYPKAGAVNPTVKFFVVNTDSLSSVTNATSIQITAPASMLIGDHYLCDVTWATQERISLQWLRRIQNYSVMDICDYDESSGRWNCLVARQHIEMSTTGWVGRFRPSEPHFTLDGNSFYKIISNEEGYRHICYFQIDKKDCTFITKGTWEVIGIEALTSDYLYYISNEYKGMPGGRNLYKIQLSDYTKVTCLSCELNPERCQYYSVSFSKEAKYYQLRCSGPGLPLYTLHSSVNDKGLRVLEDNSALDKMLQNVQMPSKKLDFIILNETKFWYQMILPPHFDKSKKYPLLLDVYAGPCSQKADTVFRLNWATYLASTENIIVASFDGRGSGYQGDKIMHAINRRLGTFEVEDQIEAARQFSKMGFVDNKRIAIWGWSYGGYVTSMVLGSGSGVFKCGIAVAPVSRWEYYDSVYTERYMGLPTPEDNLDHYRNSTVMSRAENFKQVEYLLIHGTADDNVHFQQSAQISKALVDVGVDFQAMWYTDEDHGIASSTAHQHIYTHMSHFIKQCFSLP

Regarding `CC(C)[C@H](N)C(=O)N1CCC[C@H]1B(O)O` [Val-Boro-Pro], the effect on hematopoiesis result in the series on hematopoiesis was “stimulated hematopoiesis”.
In the case of `CC(C)N1CCC(c2ccccc2)(c2ccccc2)CC1` [Prodipine, Pro-Pro-diphenyl-phosphonate], the cardiac allograft survival with cardiac allograft was 14 day.
Take diprotin A: the “effect on degradation of GRF in plasma” value at DPP-4 is reported as “prevented”.
